Measured values taken from US9567329B2, “High penetration prodrug compositions of 1H-imidazo[4,5-c]quinolin-4-amines and 1H-imidazo[4,5-c]quinolin-4-amine-related compounds and uses thereof” (Techfields Pharma Co., Ltd, priority 2007, dated 2017).

Key:
[1] = test system: Human breast cancer cells (BCAP-37); assay: Antitumor activity, breast cancer xenograft, topical treatment from day 1; conditions: 50 μl of 3% topically once per day from day 1; after 28 days
Excerpt: Human breast cancer cells (BCAP-37, 4-5 mm^3 of tumor tissue was used in each mouse) were subcutaneous xenografted into nude mice (BALB).

[2] = test system: Human colon cancer cells (LS174J); assay: Antitumor activity, colon cancer xenograft, topical treatment from day 1; conditions: 50 μl of 3% topically twice per day from day 1; after 28 days
Excerpt: Human colon cancer cells (LS174J, 4-5 mm^3 of tumor tissue was used in each mouse) were subcutaneously xenografted into nude mice (BALB).

[3] = test system: herpes simplex virus Type I; assay: Anti-Herpes activity, treated for 5 days, first treatment 5 days after HSV infection; format: in vivo; conditions: guinea pigs
Description: (§1) The evaluation of anti-Herpes activity of these prodrugs was carried out using the method described by Kern, et al. [Antimicrob. Agents Chemother. 14, 817, (1978)].
(§2) In the third experiment, female guinea pigs (n=10) were anesthetized. The guinea pigs were then infected with herpes simplex virus (type I or Type II, about 10^5 plaque forming units were used) intravaginally using a cotton swab. […] External lesions were scored daily for ten days using the following scale: 0, no lesion; 1, redness and swelling; 2, a few small vesicles; 3, several large vesicles; 4, large ulcers and necrosis; and 5, paralysis. The percent Lesion Inhibition was calculated as follows: 100−[(Sum of maximum lesion scores of treated group divided by the Sum of the scores of infected control)×100] (Table 7).

[4] = test system: herpes simplex virus Type II; assay: as above; format: in vivo; conditions: guinea pigs
Description: as §1, §2

[5] = test system: herpes simplex virus Type I; assay: Anti-Herpes activity, treated for 3 days before HSV infection; format: in vivo; conditions: guinea pigs
Description: (§3) The evaluation of anti-Herpes activity of these prodrugs was carried out using the method described by Kern, et al. [Antimicrob. Agents Chemother. 14, 817, (1978)]. In each experiment, female guinea pigs (n=10) were anesthetized. […] Virus replication was monitored by determining the amount of virus recovered with vaginal swabs taken on day 7 after infection. […] The percent Lesion Inhibition was calculated as follows: 100-[(Sum of maximum lesion scores of treated group divided by the Sum of the scores of infected control)×100] (Table 5).

[6] = test system: herpes simplex virus Type II; assay: as above; format: in vivo; conditions: guinea pigs
Description: as §3

[7] = test system: herpes simplex virus Type I; assay: Anti-Herpes activity, treated for 5 days, first treatment just after HSV infection; format: in vivo; conditions: guinea pigs
Description: as §1
(§4) In the second experiment, female guinea pigs (n=10) were anesthetized. Herpes simplex virus (Type I or Type II, about 10^5 plaque forming units were used) was applied intravaginally to the guinea pigs using a cotton swab. […] Virus replication was monitored by determining the amount of virus recovered with vaginal swabs taken on day 7 after infection. External lesions were scored daily for ten days using the following scale: 0, no lesion; 1, redness and swelling; 2, a few small vesicles; 3, several large vesicles; 4, large ulcers and necrosis; and 5, paralysis. The percent Lesion Inhibition was calculated as follows: 100−[(Sum of maximum lesion scores of treated group divided by the Sum of the scores of infected control)×100] (Table 6).

[8] = test system: herpes simplex virus Type II; assay: as above; format: in vivo; conditions: guinea pigs
Description: as §1, §4

[9] = test system: Human breast cancer cells (BCAP-37)
Excerpt: Human breast cancer cells (BCAP-37, 3-4 mm^3 of tumor tissue was used in each mouse) were subcutaneously xenografted into nude mice (BALB).

[10] = test system: interferon production; assay: Interferon inducing activity in guinea pigs (serum protection of fibroblasts from mengovirus); format: in vivo; conditions: serum 18 hours after treatment
Description: Without being bound by any mechanism, the ability to induce interferon production of the pro-drugs of the invention was evaluated in guinea pigs (n=10). Untreated guinea pigs provided controls.
Each test drug was administered to real back skin of a guinea pig at a specific dose of about 0.5-4.5 mg/kg respectively.
Each treated and control guinea pig was bled 18 hours after drug treatment and its serum was assayed for interferon activity. The serum was diluted and incubated with guinea pig fibroblast cells at 37° C. overnight in 96 well microtiter plates. The incubated cells were then challenged with an inoculum of mengovirus that was sufficient to kill untreated cells in two days. Two days after such challenge, the cells were examined both microscopically and after staining with crystal violet to determine whether the cells remained intact.
Table 4 contains the results of the study with activity/ml indicating the highest dilute on of serum that protected cells from virus challenge. Untreated guinea pigs provided controls.

[11] = test system: interferon production; assay: as above; format: in vivo; conditions: serum 18 hours after treatment; remark: listed apart in the source
[12] = Irritative effect or discomfort on skin of nude mice after topical application; format: in vivo; conditions: 0.1 ml of 3% in pH 7.4 phosphate buffer, back of nude mice, twice per day, 1 week
Description: Irritative effect or discomfort in the skin of mice of HPPs of 1H-imidazo[4,5-c]quinolin-4-amines or 1H-imidazo[4,5-c]quinolin-4-amine-related compounds was evaluated during a period of 1 week after the topical application of 0.1 ml of 3% of the respective test drug in pH 7.4 phosphate buffer (0.2 M) to the back of nude mice twice per day.

[13] = Conversion of HPPs to parent drugs in human plasma (half life); format: in vitro ADME; conditions: 37° C.
Description: HPPs of 1H-imidazo[4,5-c]quinolin-4-amines or 1H-imidazo[4,5-c]quinolin-4-amine-related compounds converted to the parent 1H-imidazo[4,5-c]quinolin-4-amines or 1H-imidazo[4,5-c]quinolin-4-amine-related compounds quickly in good yield in human plasma.
A HPP of 1H-imidazo[4,5-c]quinolin-4-amines or 1H-imidazo[4,5-c]quinolin-4-amine-related compound (0.05 mg) was dissolved in 0.1 ml of 0.2M pH 7.4 phosphate buffer. 1 ml of human plasma, preheated to 37° C., was added into the mixture. The mixture was kept in a water bath at 37° C., and at every 10 min intervals 0.2 ml of samples were withdrawn and added to 0.4 ml of methanol to precipitate the plasma protein. The samples were centrifuged for 5 min and analyzed by HPLC.

[14] = In vitro penetration rate across human skin in modified Franz cells; format: in vitro ADME; conditions: 3% solution in ethanol/pH 7.4 phosphate buffer (0.2 M) 70/30
Description: Penetration rates of HPPs and their parent drugs through human skin were measured in vitro by modified Franz cells. A Franz cell had two chambers, the top sample chamber and the bottom receiving chamber. The human skin tissue (360-400 μm thick) that separated the top and the receiving chambers was isolated from the anterior or posterior thigh areas.
A compound tested (0.5 mL, 3% in a mixture of ethanol and phosphate buffer (0.2M, pH 7.4) (v/v, 70/30)) was added to the sample chamber of a Franz cell. The receiving chamber contains 2 ml of 2% bovine serum albumin in saline which was stirred at 600 rpm. The amount of the tested compound penetrating the skin was determined by high-performance liquid chromatography (HPLC) method.
The lowest detectable apparent flux values in this method was 1 μg/cm^2/h.

[15] = 0.5 mg/kg once per day for 5 days
[16] = 1.5 mg/kg once per day for 5 days
[17] = 4.5 mg/kg once per day for 5 days
[18] = 0.5 mg/kg once per day for 3 days before HSV infection
[19] = 1.5 mg/kg once per day for 3 days before HSV infection
[20] = 4.5 mg/kg once per day for 3 days before HSV infection
[21] = at day 42, treatment from day 21 (tumors 13±2 mm×12±3 mm), 50 μl of 3% topically once per day

Q: With `CNCC(=O)Nc1nc2ccccc2c2c1ncn2CC(C)C.Cl` [sarcosine 1-isobutyl-1H-imidazo[4,5-c]quinolin-4-amide hydrochloride] as the compound, how does the “Tumor size, Human breast cancer, first dimension” value [1] read?
A: Its value is “None”.

Q: What about the “tumor incidence, human breast cancer” value [1] of the same compound?
A: Its value is “no tumor was seen”.

Q: What about the “Tumor size, Human colon cancer, first dimension” value [2] of the same compound?
A: Its value is “None”.

Q: And the “tumor incidence, human colon cancer” value [2]?
A: The value was “no tumor was seen”.

Q: What about the “% Lesion inhibition of the HPP, intravaginal, Herpes type I” value [3, 15] of the same compound?
A: Its value is 37%.

Q: And the “% Lesion inhibition of the HPP, transdermal, Herpes type I” value [3, 15]?
A: The value was 37%.

Q: What about the “% Lesion inhibition of the HPP, intravaginal, Herpes type I” value [3, 16] of the same compound?
A: Its value is 68%.

Q: And the “% Lesion inhibition of the HPP, transdermal, Herpes type I” value [3, 16]?
A: Its value is 57%.

Q: And the “% Lesion inhibition of the HPP, intravaginal, Herpes type I” value [3, 17]?
A: Its value is 88%.

Q: And the “% Lesion inhibition of the HPP, transdermal, Herpes type I” value [3, 17]?
A: The value was 89%.

Q: What about the “% Lesion inhibition of the HPP, intravaginal, Herpes type II” value [4, 15] of the same compound?
A: Its value is 38%.

Q: What about the “% Lesion inhibition of the HPP, transdermal, Herpes type II” value [4, 15] of the same compound?
A: The value was 38%.

Q: What about the “% Lesion inhibition of the HPP, intravaginal, Herpes type II” value [4, 16] of the same compound?
A: The value was 70%.

Q: What about the “% Lesion inhibition of the HPP, transdermal, Herpes type II” value [4, 16] of the same compound?
A: Its value is 58%.

Q: What about the “% Lesion inhibition of the HPP, intravaginal, Herpes type II” value [4, 17] of the same compound?
A: The value was 90%.

Q: What about the “% Lesion inhibition of the HPP, transdermal, Herpes type II” value [4, 17] of the same compound?
A: Its value is 88%.

Q: What about the “% Lesion inhibition of the HPP, intravaginal, Herpes type I” value [5, 18] of the same compound?
A: The value was 71%.

Q: And the “% Lesion inhibition of the HPP, transdermal, Herpes type I” value [5, 18]?
A: The value was 45%.

Q: What about the “% Lesion inhibition of the HPP, intravaginal, Herpes type I” value [5, 19] of the same compound?
A: The value was 93%.

Q: What about the “% Lesion inhibition of the HPP, transdermal, Herpes type I” value [5, 19] of the same compound?
A: The value was 72%.

Q: What about the “% Lesion inhibition of the HPP, intravaginal, Herpes type I” value [5, 20] of the same compound?
A: Its value is 95%.

Q: And the “% Lesion inhibition of the HPP, transdermal, Herpes type I” value [5, 20]?
A: Its value is 91%.

Q: What about the “% Lesion inhibition of the HPP, intravaginal, Herpes type II” value [6, 18] of the same compound?
A: The value was 75%.

Q: What about the “% Lesion inhibition of the HPP, transdermal, Herpes type II” value [6, 18] of the same compound?
A: Its value is 51%.

Q: What about the “% Lesion inhibition of the HPP, intravaginal, Herpes type II” value [6, 19] of the same compound?
A: The value was 90%.

Q: And the “% Lesion inhibition of the HPP, transdermal, Herpes type II” value [6, 19]?
A: Its value is 73%.

Q: And the “% Lesion inhibition of the HPP, intravaginal, Herpes type II” value [6, 20]?
A: Its value is 96%.

Q: And the “% Lesion inhibition of the HPP, transdermal, Herpes type II” value [6, 20]?
A: The value was 90%.

Q: And the “% Lesion inhibition of the HPP, intravaginal, Herpes type I” value [7, 15]?
A: Its value is 57%.

Q: What about the “% Lesion inhibition of the HPP, transdermal, Herpes type I” value [7, 15] of the same compound?
A: Its value is 47%.

Q: What about the “% Lesion inhibition of the HPP, intravaginal, Herpes type I” value [7, 16] of the same compound?
A: The value was 87%.

Q: What about the “% Lesion inhibition of the HPP, transdermal, Herpes type I” value [7, 16] of the same compound?
A: The value was 77%.

Q: And the “% Lesion inhibition of the HPP, intravaginal, Herpes type I” value [7, 17]?
A: Its value is 95%.

Q: What about the “% Lesion inhibition of the HPP, transdermal, Herpes type I” value [7, 17] of the same compound?
A: The value was 91%.

Q: And the “% Lesion inhibition of the HPP, intravaginal, Herpes type II” value [8, 15]?
A: Its value is 56%.

Q: And the “% Lesion inhibition of the HPP, transdermal, Herpes type II” value [8, 15]?
A: Its value is 49%.

Q: What about the “% Lesion inhibition of the HPP, intravaginal, Herpes type II” value [8, 16] of the same compound?
A: The value was 90%.

Q: And the “% Lesion inhibition of the HPP, transdermal, Herpes type II” value [8, 16]?
A: Its value is 80%.

Q: And the “% Lesion inhibition of the HPP, intravaginal, Herpes type II” value [8, 17]?
A: Its value is 96%.

Q: And the “% Lesion inhibition of the HPP, transdermal, Herpes type II” value [8, 17]?
A: Its value is 93%.

Q: What about the “tumor size, first dimension” value [9, 21] of the same compound?
A: The value was 11±2 mm.

Q: What about the “tumor size, second dimension” value [9, 21] of the same compound?
A: Its value is 10±2 mm.

Q: What about the death of mice ([9]; up to day 70, 50 μl of 3% topically once per day from day 21) of the same compound?
A: The death of mice was “none of mice died at day 70”.

Q: And the “Interferon level of the HPP, transdermal” value ([10]; 0.5 mg/kg once)?
A: Its value is 8,676 activity/ml.

Q: And the “Interferon level of the HPP, transdermal” value ([10]; 1.5 mg/kg once)?
A: The value was 16,784 activity/ml.

Q: What about the “Interferon level of the HPP, transdermal” value ([10]; 4.5 mg/kg once) of the same compound?
A: The value was 57,235 activity/ml.

Q: And the “Interferon level of the HPP, intravaginal” value ([11]; 0.5 mg/kg once)?
A: Its value is 23,647 activity/ml.

Q: And the “Interferon level of the HPP, intravaginal” value ([11]; 1.5 mg/kg once)?
A: Its value is 56,735 activity/ml.

Q: What about the “Interferon level of the HPP, intravaginal” value ([11]; 4.5 mg/kg once) of the same compound?
A: Its value is 87,795 activity/ml.

Q: What about the “signs of irritative effect or discomfort in the skin” value [12] of the same compound?
A: Its value is “None of any signs of irritative effect or discomfort was observed”.

Q: What about the “Half life of HPPs in plasma” value [13] of the same compound?
A: The value was 27 ± 1 min.

Q: What about the “In vitro Penetration Rate of HPPs (apparent flux)” value [14] of the same compound?
A: The value was 0.15 mg/cm^2/h.
